{"source": "patent US20040063662A1", "about": "“Selenophene anti-tumor agents” (priority 1996, published 2004)", "key": {"CCRF-CEM": {"test_system": "CCRF-CEM", "test": "NCI human tumor cell panel: CCRF-CEM (Leukemia)", "type": "cell-based"}, "HL-60(TB)": {"test_system": "HL-60(TB)", "test": "NCI human tumor cell panel: HL-60(TB) (Leukemia)", "type": "cell-based", "details": "read-out: Log10 GI50 (converted)"}, "K-562": {"test_system": "K-562", "test": "NCI human tumor cell panel: K-562 (Leukemia)", "type": "cell-based"}, "A549/ATCC": {"test_system": "A549/ATCC", "test": "NCI human tumor cell panel: A549/ATCC (Non-Small Cell Lung Cancer)", "type": "cell-based"}, "NCI-H226": {"test_system": "NCI-H226", "test": "NCI human tumor cell panel: NCI-H226 (Non-Small Cell Lung Cancer)", "type": "cell-based"}, "NCI-H23": {"test_system": "NCI-H23", "test": "NCI human tumor cell panel: NCI-H23 (Non-Small Cell Lung Cancer)", "type": "cell-based"}, "COLO 205": {"test_system": "COLO 205", "test": "NCI human tumor cell panel: COLO 205 (Colon Cancer)", "type": "cell-based"}, "SF-268": {"test_system": "SF-268", "test": "NCI human tumor cell panel: SF-268 (CNS Cancer)", "type": "cell-based"}, "SNB-19": {"test_system": "SNB-19", "test": "NCI human tumor cell panel: SNB-19 (CNS Cancer)", "type": "cell-based"}, "SK-MEL-2": {"test_system": "SK-MEL-2", "test": "NCI human tumor cell panel: SK-MEL-2 (Melanoma)", "type": "cell-based"}, "SK-MEL-28": {"test_system": "SK-MEL-28", "test": "NCI human tumor cell panel: SK-MEL-28 (Melanoma)", "type": "cell-based"}, "SK-MEL-5": {"test_system": "SK-MEL-5", "test": "NCI human tumor cell panel: SK-MEL-5 (Melanoma)", "type": "cell-based"}, "IGROV1": {"test_system": "IGROV1", "test": "NCI human tumor cell panel: IGROV1 (Ovarian Cancer)", "type": "cell-based"}, "OVCAR-5": {"test_system": "OVCAR-5", "test": "NCI human tumor cell panel: OVCAR-5 (Ovarian Cancer)", "type": "cell-based"}, "786-0": {"test_system": "786-0", "test": "NCI human tumor cell panel: 786-0 (Renal Cancer)", "type": "cell-based"}, "A498": {"test_system": "A498", "test": "NCI human tumor cell panel: A498 (Renal Cancer)", "type": "cell-based"}, "CAKI-1": {"test_system": "CAKI-1", "test": "NCI human tumor cell panel: CAKI-1 (Renal Cancer)", "type": "cell-based"}, "RXF-393": {"test_system": "RXF-393", "test": "NCI human tumor cell panel: RXF-393 (Renal Cancer)", "type": "cell-based"}, "SN12C": {"test_system": "SN12C", "test": "NCI human tumor cell panel: SN12C (Renal Cancer)", "type": "cell-based"}, "TK-10": {"test_system": "TK-10", "test": "NCI human tumor cell panel: TK-10 (Renal Cancer)", "type": "cell-based", "details": "TK-10, read-out: Log10 GI50 (converted)"}, "PC-3": {"test_system": "PC-3", "test": "NCI human tumor cell panel: PC-3 (Prostate Cancer)", "type": "cell-based"}, "MCF7/ADR-RES": {"test_system": "MCF7/ADR-RES", "test": "NCI human tumor cell panel: MCF7/ADR-RES (Breast Cancer)", "type": "cell-based"}, "MDA-MB-231/ATCC": {"test_system": "MDA-MB-231/ATCC", "test": "NCI human tumor cell panel: MDA-MB-231/ATCC (Breast Cancer)", "type": "cell-based"}, "HS 578T": {"test_system": "HS 578T", "test": "NCI human tumor cell panel: HS 578T (Breast Cancer)", "type": "cell-based"}, "BT-549": {"test_system": "BT-549", "test": "NCI human tumor cell panel: BT-549 (Breast Cancer)", "type": "cell-based"}, "[1]": {"test": "Selective cytotoxicity microculture assay, human renal carcinoma", "details": "human, SCI (selectively cytotoxicity index), GI50 (RPTEC)/GI50 (A-498)"}, "NCI-H522": {"test_system": "NCI-H522", "test": "NCI human tumor cell panel: NCI-H522 (Non-Small Cell Lung Cancer)"}, "[2]": {"test_system": "panel of sixty different human tumor cell lines", "test": "NCI human tumor cell panel: whole panel (mean graph summary)", "details": "for CC50: Homo sapiens"}, "[3]": {"details": "read-out: Log10 GI50 (converted)"}, "[4]": {"details": "read-out: Log10 TGI (converted)"}}, "note": "Where two headings read alike, the source gives them in different places.", "data": [{"smiles": "OCc1ccc(-c2ccc(-c3ccc(CO)[se]3)[se]2)[se]1", "note": "[compound 675247]", "values": [{"measurement": "GI50", "setting": "CCRF-CEM; [3]", "value": 3.39, "unit": "µM"}, {"measurement": "IC (TGI)", "setting": "CCRF-CEM; [4]", "value": 10, "unit": "µM"}, {"measurement": "GI50", "setting": "HL-60(TB)", "value": 4.07, "unit": "µM"}, {"measurement": "GI50", "setting": "K-562; K562, K-562, read-out: Log10 GI50 (converted)", "value": 1.32, "unit": "µM"}, {"measurement": "IC (TGI)", "setting": "K-562; K562, K-562, read-out: Log10 TGI (converted)", "value": 5.01, "unit": "µM"}, {"measurement": "GI50", "setting": "A549/ATCC; [3]", "value": 4.57, "unit": "µM"}, {"measurement": "IC (TGI)", "setting": "A549/ATCC; [4]", "value": 19.5, "unit": "µM"}, {"measurement": "GI50", "setting": "NCI-H226; NCI-H226, read-out: Log10 GI50 (converted)", "value": 1.7, "unit": "µM"}, {"measurement": "IC (TGI)", "setting": "NCI-H226; NCI-H226, read-out: Log10 TGI (converted)", "value": 3.89, "unit": "µM"}, {"measurement": "GI50", "setting": "NCI-H23; NCI-H23, read-out: Log10 GI50 (converted)", "value": 6.61, "unit": "µM"}, {"measurement": "IC (TGI)", "setting": "NCI-H23; NCI-H23, read-out: Log10 TGI (converted)", "value": 25.1, "unit": "µM"}, {"measurement": "GI50", "setting": "COLO 205; COLO 205, read-out: Log10 GI50 (converted)", "value": 1.95, "unit": "µM"}, {"measurement": "IC (TGI)", "setting": "COLO 205; COLO 205, read-out: Log10 TGI (converted)", "value": 5.13, "unit": "µM"}, {"measurement": "GI50", "setting": "SF-268; SF-268, read-out: Log10 GI50 (converted)", "value": 1.74, "unit": "µM"}, {"measurement": "IC (TGI)", "setting": "SF-268; SF-268, read-out: Log10 TGI (converted)", "value": 4.37, "unit": "µM"}, {"measurement": "GI50", "setting": "SNB-19; SNB-19, read-out: Log10 GI50 (converted)", "value": 5.5, "unit": "µM"}, {"measurement": "IC (TGI)", "setting": "SNB-19; SNB-19, read-out: Log10 TGI (converted)", "value": 25.1, "unit": "µM"}, {"measurement": "GI50", "setting": "SK-MEL-2; SK-MEL-2, read-out: Log10 GI50 (converted)", "value": 7.08, "unit": "µM"}, {"measurement": "IC (TGI)", "setting": "SK-MEL-2; SK-MEL-2, read-out: Log10 TGI (converted)", "value": 24, "unit": "µM"}, {"measurement": "GI50", "setting": "SK-MEL-28; SK-MEL-28, read-out: Log10 GI50 (converted)", "value": 5.13, "unit": "µM"}, {"measurement": "IC (TGI)", "setting": "SK-MEL-28; SK-MEL-28, read-out: Log10 TGI (converted)", "value": "> 100", "unit": "µM"}, {"measurement": "GI50", "setting": "SK-MEL-5; SK-MEL-5, read-out: Log10 GI50 (converted)", "value": 1.45, "unit": "µM"}, {"measurement": "IC (TGI)", "setting": "SK-MEL-5; SK-MEL-5, read-out: Log10 TGI (converted)", "value": 3.02, "unit": "µM"}, {"measurement": "GI50", "setting": "IGROV1; IGROV-1, IGROV1, read-out: Log10 GI50 (converted)", "value": 1.38, "unit": "µM"}, {"measurement": "IC (TGI)", "setting": "IGROV1; IGROV-1, IGROV1, read-out: Log10 TGI (converted)", "value": 6.46, "unit": "µM"}, {"measurement": "GI50", "setting": "OVCAR-5; OVCAR-5, read-out: Log10 GI50 (converted)", "value": 1.32, "unit": "µM"}, {"measurement": "IC (TGI)", "setting": "OVCAR-5; OVCAR-5, read-out: Log10 TGI (converted)", "value": 12.9, "unit": "µM"}, {"measurement": "GI50", "setting": "786-0; 786-0, read-out: Log10 GI50 (converted)", "value": 2.75, "unit": "µM"}, {"measurement": "IC (TGI)", "setting": "786-0; 786-0, read-out: Log10 TGI (converted)", "value": 6.31, "unit": "µM"}, {"measurement": "GI50", "setting": "A498; A498, read-out: Log10 GI50 (converted)", "value": 0.38, "unit": "µM"}, {"measurement": "IC (TGI)", "setting": "A498; A498, read-out: Log10 TGI (converted)", "value": 1.41, "unit": "µM"}, {"measurement": "GI50", "setting": "CAKI-1; CAKI-1, read-out: Log10 GI50 (converted)", "value": 0.0741, "unit": "µM"}, {"measurement": "IC (TGI)", "setting": "CAKI-1; CAKI-1, read-out: Log10 TGI (converted)", "value": 0.468, "unit": "µM"}, {"measurement": "GI50", "setting": "RXF-393; RXF-393, read-out: Log10 GI50 (converted)", "value": 1.58, "unit": "µM"}, {"measurement": "IC (TGI)", "setting": "RXF-393; RXF-393, read-out: Log10 TGI (converted)", "value": 3.72, "unit": "µM"}, {"measurement": "GI50", "setting": "SN12C; [3]", "value": 2.75, "unit": "µM"}, {"measurement": "IC (TGI)", "setting": "SN12C; [4]", "value": 11.7, "unit": "µM"}, {"measurement": "GI50", "setting": "TK-10", "value": 0.138, "unit": "µM"}, {"measurement": "GI50", "setting": "PC-3; PC-3, read-out: Log10 GI50 (converted)", "value": 3.55, "unit": "µM"}, {"measurement": "IC (TGI)", "setting": "PC-3; PC-3, read-out: Log10 TGI (converted)", "value": 12.3, "unit": "µM"}, {"measurement": "GI50", "setting": "MCF7/ADR-RES; [3]", "value": 3.8, "unit": "µM"}, {"measurement": "IC (TGI)", "setting": "MCF7/ADR-RES; [4]", "value": 26.3, "unit": "µM"}, {"measurement": "GI50", "setting": "MDA-MB-231/ATCC; Homo sapiens, MDA-MB-231, MDA-MB-231/ATCC, read-out: Log10 GI50 (converted)", "value": 5.01, "unit": "µM"}, {"measurement": "Log10 GI50", "setting": "MDA-MB-231/ATCC; MDA-MB-231/ATCC", "value": "−5.27"}, {"measurement": "GI50", "setting": "HS 578T; [3]", "value": 3.24, "unit": "µM"}, {"measurement": "IC (TGI)", "setting": "HS 578T; [4]", "value": 11.2, "unit": "µM"}, {"measurement": "GI50", "setting": "BT-549; BT-549, read-out: Log10 GI50 (converted)", "value": 3.39, "unit": "µM"}, {"measurement": "IC (TGI)", "setting": "BT-549; BT-549, read-out: Log10 TGI (converted)", "value": 14.1, "unit": "µM"}, {"measurement": "selectivity ratio", "setting": "[1]", "value": "> 1000"}, {"measurement": "GI50", "setting": "NCI-H522; NCI-H522, read-out: Log10 GI50 (converted)", "value": 1.66, "unit": "µM"}, {"measurement": "IC (TGI)", "setting": "NCI-H522; NCI-H522, read-out: Log10 TGI", "value": 3.39, "unit": "µM"}, {"measurement": "CC50", "setting": "[2]; read-out: Log10 LC50, MG_MID, mean over the panel (converted)", "value": 45.7, "unit": "µM"}, {"measurement": "CC50", "setting": "[2]; read-out: Log10 LC50, row head (cell line) not given (converted)", "value": "> 100", "unit": "µM"}, {"measurement": "Log10 GI50, MG_MID", "setting": "[2]; mean over the panel", "value": "−5.65"}, {"measurement": "Log10 TGI, Delta", "setting": "[2]; whole panel", "value": 1.36}, {"measurement": "Log10 TGI, Range", "setting": "[2]; whole panel", "value": 2.33}]}]}
